Laboratory results reported in US10196412B2, “Probe for imaging PARP-1 activity” (The Board of Trustees of the Leland Stanford Junior …, priority 2014, dated 2019).
Values belong to the molecule of their own block, whether it stands above or below them.

Key:
PARP-1 [1] = molecular target: T1, PARP-1 (Homo sapiens, UniProt P09874); experiment: gel-shift assay for in vitro assessment of PARP-1 activity; type: biochemical
PARG = PARG (Homo sapiens, UniProt Q86W56); experiment: PARG-mediated degradation of PAR formed from probe (gel); type: biochemical; conditions: FIG. 4D
Chain of PARG (Q86W56 whole entry, species assumed): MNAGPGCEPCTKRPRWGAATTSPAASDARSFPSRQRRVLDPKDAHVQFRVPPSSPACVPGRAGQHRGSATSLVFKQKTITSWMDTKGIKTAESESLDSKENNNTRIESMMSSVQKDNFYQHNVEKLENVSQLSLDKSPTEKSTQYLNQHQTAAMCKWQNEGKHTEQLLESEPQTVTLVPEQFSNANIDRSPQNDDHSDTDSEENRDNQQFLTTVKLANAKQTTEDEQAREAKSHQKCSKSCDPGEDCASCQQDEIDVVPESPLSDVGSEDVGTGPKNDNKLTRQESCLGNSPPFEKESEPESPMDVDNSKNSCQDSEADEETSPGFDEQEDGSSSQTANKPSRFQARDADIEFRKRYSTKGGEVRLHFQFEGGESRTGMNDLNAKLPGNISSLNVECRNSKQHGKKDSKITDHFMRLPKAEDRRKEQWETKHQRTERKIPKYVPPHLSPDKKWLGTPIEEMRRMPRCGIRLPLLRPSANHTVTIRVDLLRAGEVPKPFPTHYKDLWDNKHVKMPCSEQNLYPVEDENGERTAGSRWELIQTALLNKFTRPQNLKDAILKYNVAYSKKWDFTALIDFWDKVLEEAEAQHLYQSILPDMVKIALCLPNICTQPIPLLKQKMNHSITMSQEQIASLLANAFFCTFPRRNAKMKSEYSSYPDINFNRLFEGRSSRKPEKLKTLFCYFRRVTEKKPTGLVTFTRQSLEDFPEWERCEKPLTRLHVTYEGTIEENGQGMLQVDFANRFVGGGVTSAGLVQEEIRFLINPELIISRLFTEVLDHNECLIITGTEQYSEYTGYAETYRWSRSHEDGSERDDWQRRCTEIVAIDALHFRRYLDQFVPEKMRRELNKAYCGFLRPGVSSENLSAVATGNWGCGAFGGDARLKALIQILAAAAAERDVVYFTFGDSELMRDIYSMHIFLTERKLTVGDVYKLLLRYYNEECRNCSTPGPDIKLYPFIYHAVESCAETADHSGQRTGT
Description: FIG. 4A illustrates novel substrate-based PARP-1 probes assessed for in vitro PARP-1 activity and PARG-mediated degradation of PAR.

ARH3 = molecular target: T2, ARH3 (Homo sapiens, UniProt Q9NX46); experiment: ARH3-mediated degradation of PAR formed from probe (gel); type: biochemical; conditions: FIG. 4D
T2 sequence (Q9NX46 1-363): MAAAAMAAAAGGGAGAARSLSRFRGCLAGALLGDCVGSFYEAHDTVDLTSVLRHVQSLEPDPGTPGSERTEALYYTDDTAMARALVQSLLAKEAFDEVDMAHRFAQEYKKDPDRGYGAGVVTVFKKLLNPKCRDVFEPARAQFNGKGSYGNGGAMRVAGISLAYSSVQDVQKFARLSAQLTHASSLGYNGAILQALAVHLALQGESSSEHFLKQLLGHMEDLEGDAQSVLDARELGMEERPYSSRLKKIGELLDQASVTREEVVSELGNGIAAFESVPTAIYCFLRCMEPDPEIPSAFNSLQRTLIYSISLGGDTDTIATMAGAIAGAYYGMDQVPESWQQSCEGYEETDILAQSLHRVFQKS

PARP-1 [2] = molecular target: T1, PARP-1; experiment: PET imaging of tracer retention in animal models of tumor radiation therapy; type: in vivo, mice; set-up: endogenous in cells; host or cells: HeLa xenografts and orthotopic MDA-MB-231 tumours in mice
Description: FIG. 8 illustrates a schematic showing animal studies performed with ^18F-PEG2-NAD (Substrate-based PARP-1 Activity Reporter: ^18F-SuPAR)
FIGS. 9A-9C illustrate the validation of ^18F-SuPAR in mice bearing HeLa tumor xenografts following radiation therapy.
FIGS. 10A-10C illustrate the validation of ^18F-SuPAR in mice bearing orthotopic MDA-MB-231 tumors following radiation therapy.
FIGS. 11A-11D illustrate the validation of PARP-1 as target of ^18F-SuPAR following inhibition by BMN673.
One advantageous tracer probe of the disclosure is an efficient analog of NAD that has been labelled by ^18F-radionuclide for PET imaging. It is contemplated, however, that other radionuclides detectable by PET imaging technology can be used in place of ^18F. Previously unknown relationships between NAD modification and PARP-1 substrate potential have been elucidated to synthesize the tracer, 6N-(triazo-PEG2-^18F)-NAD. This tracer was validated for PARP-1 activity in vivo in two animal models of tumor radiation therapy. […] Results were confirmed ex vivo by autoradiography and immunofluorescence analysis of tumor sections.

T1 sequence (P09874 whole entry): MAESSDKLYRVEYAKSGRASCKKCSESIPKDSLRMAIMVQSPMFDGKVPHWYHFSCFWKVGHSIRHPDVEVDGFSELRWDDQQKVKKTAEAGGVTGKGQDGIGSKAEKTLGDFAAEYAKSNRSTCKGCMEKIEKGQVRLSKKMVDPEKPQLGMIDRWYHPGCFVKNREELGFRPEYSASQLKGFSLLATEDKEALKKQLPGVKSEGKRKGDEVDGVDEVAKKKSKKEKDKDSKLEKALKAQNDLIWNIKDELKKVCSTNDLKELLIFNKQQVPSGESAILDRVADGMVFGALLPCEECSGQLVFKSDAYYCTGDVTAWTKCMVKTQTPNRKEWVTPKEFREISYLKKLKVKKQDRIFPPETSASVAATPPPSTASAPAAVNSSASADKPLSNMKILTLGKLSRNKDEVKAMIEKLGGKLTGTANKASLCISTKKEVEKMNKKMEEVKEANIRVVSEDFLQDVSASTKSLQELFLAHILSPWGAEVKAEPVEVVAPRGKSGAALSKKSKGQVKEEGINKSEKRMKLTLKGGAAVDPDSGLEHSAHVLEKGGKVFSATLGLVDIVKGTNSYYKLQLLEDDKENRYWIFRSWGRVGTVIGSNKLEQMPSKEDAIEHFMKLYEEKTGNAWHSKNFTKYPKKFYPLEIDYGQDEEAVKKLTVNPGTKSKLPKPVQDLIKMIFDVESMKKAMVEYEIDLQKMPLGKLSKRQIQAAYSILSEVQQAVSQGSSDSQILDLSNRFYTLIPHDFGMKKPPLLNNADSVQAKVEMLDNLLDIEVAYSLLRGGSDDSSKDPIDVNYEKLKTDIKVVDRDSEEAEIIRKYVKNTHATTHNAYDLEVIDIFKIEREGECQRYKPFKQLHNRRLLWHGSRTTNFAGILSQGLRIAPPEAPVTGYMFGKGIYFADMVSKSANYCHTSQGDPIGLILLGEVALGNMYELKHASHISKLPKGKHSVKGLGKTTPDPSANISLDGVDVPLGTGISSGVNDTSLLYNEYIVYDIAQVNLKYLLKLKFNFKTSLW

SMILES: C#CCNc1ncnc2c1ncn2[C@@H]1O[C@H](COP(=O)(O)OP(=O)(O)OC[C@H]2O[C@@H]([n+]3cccc(C(N)=O)c3)[C@H](O)[C@@H]2O)[C@@H](O)[C@H]1O [LCD11, Nicotinamide 6-N-propargyladenine dinucleotide]
incorporation into high molecular weight PAR (PARP-1 [1]; low percentage ratios of alkyne probe to NAD, FIG. 6B): incorporation into high molecular weight PAR occurs

degradation by PARG (PARG): resistance to degradation
degradation by ARH3 (ARH3): resistance to degradation
SMILES: NC(=O)c1ccc[n+]([C@@H]2O[C@H](COP(=O)(O)OP(=O)(O)OC[C@H]3O[C@@H](n4cnc5c(NCc6cn(CCOCCOCCF)nn6)ncnc54)[C@H](O)[C@@H]3O)[C@@H](O)[C@H]2O)c1 [LCD67]

probe target verification using a highly potent PARP-1 inhibitor (PARP-1 [2]; in vivo, confirmed ex vivo by autoradiography and immunofluorescence): verified as PARP-1
time-dependence of maximal tracer uptake (PARP-1 [2]; two animal models of tumor radiation therapy): tumor-type specific
SMILES: NC(=O)c1ccc[n+](C2OC(COP(=O)(O)OP(=O)(O)OCC3OC(n4cnc5c(NCc6cn(COCC[18F])nn6)ncnc54)C(O)C3O)C(O)C2O)c1 (stereo not shown) [6N-(triazo-PEG2-^18F)-NAD]
tracer retention with increasing doses of radiation (PARP-1 [2]; 0, 5, 10 Gy, two animal models of tumor radiation therapy): dose-dependence of tracer retention was observed

inhibition of PARP-1 (PARP-1 [1]; gel, FIG. 2A): inhibits PARP-1
SMILES: Nc1cccc2c(=O)[nH][nH]c(=O)c12 [luminol, reference compound]
